The values that follow come from ChEMBL document CHEMBL1268920, “Design and synthesis of aminohydantoins as potent and selective human β-secretase (BACE1) inhibitors with enhanced brain permeability” (Bioorg Med Chem Lett, 2010).

One series relates to Brain. Nature of the series: Permeability across brain in Tg2576 mouse at 100 mg/kg, po. In kind it is ADME, organism-based. Further details: dose 100 mg/kg, route oral. Particulars: in vivo.
`COc1ccc([C@]2(c3cccc(-c4cccnc4)c3)N=C(N)N(C)C2=O)cc1C` came in with a permeability of 15%.
Regarding `COc1ccc([C@]2(c3cccc(-c4cccnc4F)c3)N=C(N)N(C)C2=O)cc1C`, the permeability worked out at 10%.
Turning to `COc1ccc([C@]2(c3cccc(-c4cccnc4OC)c3)N=C(N)N(C)C2=O)cc1C`, the permeability is reported as 7%.
As to `COc1ccc([C@]2(c3cccc(-c4cncnc4)c3)N=C(N)N(C)C2=O)cc1C`, the permeability is 5%.
For the molecule `CN1C(=O)[C@@](c2ccc(OC(F)(F)F)cc2)(c2cccc(-c3cccnc3)c2)N=C1N`, the permeability came out at 10%.
The same measure, in the same setting: for `CN1C(=O)[C@@](c2ccc(OC(F)(F)F)cc2)(c2cccc(-c3cccnc3F)c2)N=C1N` the value was 10%.
Regarding `CN1C(=O)[C@@](c2ccc(OC(F)F)cc2)(c2cccc(-c3cc(F)cnc3F)c2)N=C1N`, the permeability is listed as 9%.
Consider `CN1C(=O)[C@@](c2ccc(OC(F)F)cc2)(c2cccc(-c3cccnc3F)c2)N=C1N`, for which the permeability is recorded as 9%.
Molecule `CN1C(=O)[C@](c2ccccc2)(c2ccc(OC(F)F)cc2)N=C1N` came in with a permeability of 90%.
In the case of `CN1C(=O)C(c2ccccc2)(c2ccccc2)N=C1N`, the permeability is recorded as 81%.

Test system in the next series: not listed separately
Nature of the series: Ratio of AUC in brain to plasma in Tg2576 mouse. In kind it is ADME. Particulars: brain and plasma, read-out: Ratio AUC.
Regarding `CN1C(=O)C(c2ccccc2)(c2ccccc2)N=C1N`, the Kp worked out at 0.8.
On to `CN1C(=O)[C@@](c2ccc(OC(F)(F)F)cc2)(c2ccc(F)c(-c3cncnc3)c2)N=C1N`, for which the Kp was determined as 0.1.
For `NC1=NC(c2ccccc2)(c2ccccc2)C2=NCCCN12`, the Kp stood at 1.
For `COc1ccc([C@]2(c3ccc(F)c(-c4cccnc4F)c3)N=C(N)N(C)C2=O)cc1C`, the Kp was determined as 0.1.
